Experimental data: PMC3163566, “Combined analysis of transcriptome and metabolite data reveals extensive differences between black and brown nearly-isogenic soybean (Glycine max) seed coats enabling the identification of pigment isogenes” (BMC Genomics, 2011)

Assays:
OMT5 = target: T1, OMT5 (Glycine max, UniProt F2YBA9); assay: HPLC-DAD and HPLC-MS/MS product detection; format: biochemical; conditions: methyl acceptor; SAM 100 uM, MgCl2 150 uM, Tris pH 7.5, 35 °C, 1 h; product peonidin-3-O-glucoside
T1 construct: full-length CDS, N-terminal His6 tag (pET-14b), E. coli BL21(DE3) pLysS, IMAC purified; primers based on mRNA BT098523
T1 sequence (F2YBA9 1-248): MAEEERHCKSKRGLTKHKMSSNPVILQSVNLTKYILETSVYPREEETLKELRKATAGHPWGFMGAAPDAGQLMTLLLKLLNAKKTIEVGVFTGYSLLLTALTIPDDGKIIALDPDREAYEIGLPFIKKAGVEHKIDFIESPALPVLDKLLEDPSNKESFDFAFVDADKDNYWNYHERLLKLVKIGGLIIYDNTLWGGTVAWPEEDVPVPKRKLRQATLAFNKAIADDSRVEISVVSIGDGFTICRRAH

UGT78K2 = target: T2, UGT78K2 (Glycine max, UniProt G0WMC8); assay: HPLC-DAD and HPLC-MS/MS product detection; format: biochemical; conditions: glucose acceptor; 5 mM UDP-glucose; 30 °C, 5 min; product cyanidin-3-O-glucoside
T2 construct: full-length CDS, N-terminal His6 tag (pET-14b), E. coli BL21(DE3) pLysS, IMAC purified
T2 sequence (G0WMC8 1-447): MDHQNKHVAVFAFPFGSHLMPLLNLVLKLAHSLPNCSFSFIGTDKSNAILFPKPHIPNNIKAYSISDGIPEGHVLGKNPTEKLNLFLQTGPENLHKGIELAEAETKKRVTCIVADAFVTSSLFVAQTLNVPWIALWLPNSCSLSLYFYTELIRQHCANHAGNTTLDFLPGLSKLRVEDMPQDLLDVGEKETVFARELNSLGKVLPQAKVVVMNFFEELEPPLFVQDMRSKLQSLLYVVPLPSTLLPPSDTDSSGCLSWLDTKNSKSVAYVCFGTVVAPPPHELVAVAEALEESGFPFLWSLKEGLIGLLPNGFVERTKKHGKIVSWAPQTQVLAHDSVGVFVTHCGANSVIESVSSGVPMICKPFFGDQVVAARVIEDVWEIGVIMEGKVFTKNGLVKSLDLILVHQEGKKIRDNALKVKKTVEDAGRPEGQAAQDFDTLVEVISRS

Compound	HPLC-DAD and HPLC-MS/MS product detection (OMT5)	HPLC-DAD and HPLC-MS/MS product detection (UGT78K2)
OC[C@H]1O[C@@H](Oc2cc3c(O)cc(O)cc3[o+]c2-c2ccc(O)c(O)c2)[C@H](O)[C@@H](O)[C@@H]1O [cyanidin-3-O-glucoside]	methyl donor and cyanidin-3-O-glucoside as the acceptor, the recombinant enzyme transferred a methyl group	
Oc1cc(O)c2cc(O)c(-c3ccc(O)c(O)c3)[o+]c2c1 [cyanidin]		the recombinant enzyme transferred glucose to the 3-position of cyanidin to form cyanidin-3-O-glucoside
